Among the data in patent publication US20250011288A1 (BRISTOL-MYERS SQUIBB COMPANY, priority 2021, published 2025) are EC50 values, retold here.

The structures appear in SMILES notation.

In the assay the target is T1, human RXFP1 (Homo sapiens, UniProt Q9HBX9).
T1 construct: expressed in transfected cells
T1 sequence (Q9HBX9 1-757): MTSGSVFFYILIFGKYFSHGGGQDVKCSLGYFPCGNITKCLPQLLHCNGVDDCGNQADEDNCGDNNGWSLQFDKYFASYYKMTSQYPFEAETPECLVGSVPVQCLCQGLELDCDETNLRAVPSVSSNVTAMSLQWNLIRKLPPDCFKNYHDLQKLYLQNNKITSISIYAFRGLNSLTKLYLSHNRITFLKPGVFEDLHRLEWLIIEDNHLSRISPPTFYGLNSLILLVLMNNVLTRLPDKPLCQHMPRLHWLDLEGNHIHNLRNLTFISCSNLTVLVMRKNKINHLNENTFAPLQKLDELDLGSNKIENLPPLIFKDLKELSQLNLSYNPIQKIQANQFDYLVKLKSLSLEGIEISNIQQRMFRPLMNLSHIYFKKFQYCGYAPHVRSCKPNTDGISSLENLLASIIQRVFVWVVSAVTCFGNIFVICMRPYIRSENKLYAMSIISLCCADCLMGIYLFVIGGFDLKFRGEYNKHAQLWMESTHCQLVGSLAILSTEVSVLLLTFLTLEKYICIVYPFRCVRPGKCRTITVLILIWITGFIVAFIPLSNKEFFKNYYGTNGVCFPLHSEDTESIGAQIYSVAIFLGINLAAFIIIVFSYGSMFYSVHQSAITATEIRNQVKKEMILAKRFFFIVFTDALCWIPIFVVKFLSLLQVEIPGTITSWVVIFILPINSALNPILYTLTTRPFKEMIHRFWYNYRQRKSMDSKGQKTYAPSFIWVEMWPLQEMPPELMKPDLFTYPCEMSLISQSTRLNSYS
The assay is described as follows: human RXFP1 (hRXFP1) HEK293 cAMP assay (HTRF). The following applies: HEK293 cells stably expressing human RXFP1, 30 min at room temperature. The assay is classed as cell-based. As to the method: RXFP1 Cyclic Adenosine Monophosphate (cAMP) Assays. […] Cells were dissociated and suspended in assay buffer. The assay buffer was HBSS buffer (with calcium and magnesium) containing 20 mM HEPES, 0.05% BSA, and 0.5 mM IBMX. Cells (3000 cells per well, except 1500 cell per well for HEK293 cells stably expressing human RXFP1) were added to 384-well Proxiplates (Perkin-Elmer). Cells were immediately treated with test compounds in DMSO (2% final) at final concentrations in the range of 0.010 nM to 50 µM. Cells were incubated for 30 min at room temperature. The level of intracellular cAMP was determined using the HTRF HiRange cAMP assay reagent kit (Cisbio) according to manufacturer's instructions. Solutions of cryptate conjugated anti-cAMP and d2 fluorophore-labelled cAMP were made in a supplied lysis buffer separately. Upon completion of the reaction, the cells were lysed with equal volume of the d2-cAMP solution and anti-cAMP solution. […] The potency and activity of a compound to […] cAMP production was then determined by fitting to a 4-parametric logistic equation from a plot of cAMP level versus compound concentrations.
Broadly, the EC50 is the midpoint of the concentration-response curve. For `CC(C)(O)CN1CC2ON=C(c3cc4c(c(C(=O)N[C@H]5[C@@H](C(=O)Nc6ccc(F)c(C(F)(F)F)c6)[C@H]6CC[C@@H]5/C6=C\C5CC5)c3)OC(C)(C)C4)C2C1` (stereo partly drawn) [Example 179, N-[(1R,2R,3S,4R, 7Z)-7-(cyclopropyl-methylidene)-3-{[4-fluoro-3-(trifluoromethyl)phenyl]carbamoyl}bicyclo[2.2.1]heptan-2-yl]-5-[5-(2-hydroxy-2-methylpropyl)-3aH,4H,5H,6H, 6aH-pyrrolo[3,4-d][1,2]oxazol-3-yl]-2,2-dimethyl-2,3-dihydro-1-benzofuran-7-carboxamide], the EC50 amounted to 6.5 nM.
The figure for `O=C(NC1CCC1)O[C@@H](c1ccc(F)c(-c2cnc(OCCO)c(C(=O)N[C@@H]3C4CCC(/C4=C/C(F)(F)F)[C@@H]3C(=O)Nc3ccc(F)c(C(F)(F)F)c3)c2)c1)C(F)(F)F` (stereo partly drawn) [Example 43, (IS)-2,2,2-trifluoro-1-14-fluoro-3-(5-{[(2R,3S,7Z)-3-{[4-fluoro-3-(trifluoromethyl)phenyl]carbamoyl}-7-(2,2,2-trifluoroethylidene)bicyclo[2. 2.1]heptan-2-yl]carbamoyl}-6-(2-hydroxyethoxy)pyridin-3-yl)phenyl]ethyl N-cyclobutylcarbamate] is 9.4 nM; for `COc1ncc(C(=O)N2CC(S(C)(=O)=O)C2)cc1C(=O)N[C@H]1[C@@H](C(=O)N[C@H](C)C2(C)CC2)[C@H]2CC[C@@H]1/C2=C\C1CC1` [Example 151, N-[(1R,2R,4R,7Z)-7-(cyclopropyl-methylidene)-3-{[(1R)-1-(1-methylcyclopropyl)ethyl]carbamoyl}bicyclo[2.2.1]heptan-2-yl]-5-(3-methanesulfonylazetidine-1-carbonyl)-2-methoxypyridine-3-carboxamide] it is 3.5 nM; for `COc1cc2c(cc1C(=O)N[C@H]1[C@@H](C(=O)Nc3ccc(F)c(C(F)(F)F)c3)[C@H]3CC[C@@H]1/C3=C\C1CC1)CN(CC(C)(C)O)CC2` [Example 85, N-((1R,2R,3S,4R,Z)-7-(cyclopropylmethylene)-3-((4-fluoro-3-(trifluoromethyl)phenyl)carbamoyl)bicyclo[2.2.1]heptan-2-yl)-2-(2-hydroxy-2-methylpropyl)-6-methoxy-1,2,3,4-tetrahydroisoquinoline-7-carboxamide] it is 200 nM.
With `COc1cc(C2=NOC3CC(COC(=O)Nc4ccccc4)CC23)cc(C(=O)N[C@@H]2C3CCC(/C3=C/C3CC3)[C@@H]2C(=O)Nc2ccc(F)c(C(F)(F)F)c2)n1` (stereo partly drawn) [Example 158, [3-(2-{[(2R,3S,7Z)-7-(cyclopropyl-methylidene)-3-{[4-fluoro-3-(trifluoromethyl)phenyl]carbamoyl}bicyclo[2.2.1]heptan-2-yl]carbamoyl}-6-methoxypyridin-4-yl)-3aH,4H,5H,6H, 6aH-cyclopenta[d][1,2]oxazol-5-yl]methyl N-phenylcarbamate] the figure was 7.8 nM; with `COc1ncc(C2=NOC3CC(CO)CC23)cc1C(=O)N[C@H]1[C@@H](C(=O)Nc2ccc(F)c(C(F)(F)F)c2)[C@H]2CC[C@@H]1/C2=C\C1CCCC1` (stereo partly drawn) [Example 123, N-((1R,2R,3S,4R,Z)-7-(cyclopentyl-methylene)-3-((4-fluoro-3-(trifluoromethyl)phenyl)carbamoyl)bicyclo[2.2.1]heptan-2-yl)-5-(5-(hydroxymethyl)-3a,5,6,6a-tetrahydro-4H-cyclopenta[d]isoxazol-3-yl)-2-methoxynicotinamide], 3.1 nM.
Turning to `COc1ncc(C2=NOC3CC(C(C)O)CC23)cc1C(=O)N[C@H]1[C@@H](C(=O)Nc2ccc(F)c(C(F)(F)F)c2)[C@H]2CC[C@@H]1/C2=C\C1CC1` (stereo partly drawn) [Example 112, N-((1R,2R,3S,4R,Z)-7-(cyclopropyl-methylene)-3-((4-fluoro-3-(trifluoromethyl)phenyl)carbamoyl)bicyclo[2.2.1]heptan-2-yl)-5-(5-(1-hydroxyethyl)-3a,5,6,6a-tetrahydro-4H-cyclopenta[d]isoxazol-3-yl)-2-methoxynicotinamide], the response was half-maximal at 3.9 nM (EC50).
The figure for `COc1cnc(-c2cc(C(=O)O)ccc2F)nc1C(=O)N[C@@H]1C2CCC(/C2=C/C(F)(F)F)[C@@H]1C(=O)Nc1ccc(F)c(C(F)(F)F)c1` (stereo partly drawn) [Example 32, 4-Fluoro-3-(4-{[(2R,3S,7Z)-3-{[4-fluoro-3-(trifluoromethyl)phenyl]carbamoyl}-7-(2,2,2-trifluoroethylidene)bicyclo[2. 2.1]heptan-2-yl]carbamoyl}-5-methoxypyrimidin-2-yl)benzoic acid] is 166 nM.
The figure for `COCCN1CCc2cc(OC)c(C(=O)N[C@H]3[C@@H](C(=O)Nc4ccc(F)c(C(F)(F)F)c4)[C@H]4CC[C@@H]3/C4=C\C3CC3)cc2C1` [Example 87, N-[(1R,2R,3S,4R)-7-(cyclopropyl-methylidene)-3-{[4-fluoro-3-(trifluoromethyl)phenyl]carbamoyl}bicyclo[2.2.1]heptan-2-yl]-6-methoxy-2-(2-methoxyethyl)-1,2,3,4-tetrahydro-isoquinoline-7-carboxamide] is 630 nM; for `COCCn1cc(OC)c(C(=O)N[C@@H]2C3CCC(/C3=C/C3CC3)[C@@H]2C(=O)Nc2ccc(F)c(C(F)(F)F)c2)n1` (some centres unmarked) [Example 79] it is 230 nM.
The figure for `COc1ncc(-c2cc(C(=O)O)ccc2F)cc1C(=O)N[C@@H]1C2CCC(C2=C(C)C)[C@@H]1C(=O)Nc1ccc(F)c(C(F)(F)F)c1` (stereo partly drawn) [Example 21, 4-fluoro-3-(5-{[(2R,3S)-3-{[4-fluoro-3-(trifluoromethyl)phenyl]carbamoyl}-7-(propan-2-ylidene)bicyclo[2.2.1]heptan-2-yl]carbamoyl}-6-methoxypyridin-3-yl)benzoic acid] is 80 nM; for `O=C(N[C@@H]1C2CCC(/C2=C/C(F)(F)F)[C@@H]1C(=O)Nc1ccc(F)c(C(F)(F)F)c1)c1cnc2ccc(Cl)cc2c1` (stereo partly drawn) [Example 17, 6-chloro-N-[(2R,3S,7Z)-3-{[4-fluoro-3-(trifluoromethyl)phenyl]carbamoyl}-7-(2,2,2-trifluoroethylidene)bicyclo[2.2.1]heptan-2-yl]quinoline-3-carboxamide] it is 4500 nM.
Molecule `CC1Cc2cc(C3=NOC4CC(CO)CC34)cc(C(=O)N[C@@H]3C4CCC(/C4=C/C4CC4)[C@@H]3C(=O)N[C@H](C)C3(C)CC3)c2O1` (some centres unmarked) [Example 152] registered an EC50 of 9 nM. Compared with the last molecule, the EC50 is about 500-fold lower.
The figure for `COc1ncc(-c2cc([C@H](OC(=O)NC3CCC3)C(F)(F)F)ccc2F)cc1C(=O)N[C@@H]1C2CCC(/C2=C/C2CC(F)(F)C2)[C@@H]1C(=O)Nc1ccc(F)c(C(F)(F)F)c1` (stereo partly drawn) [Example 169, (1S)-1-[3-(5-{[(2R,3S,7Z)-7-[(3,3-difluorocyclobutyl)methylidene]-3-{[4-fluoro-3-(trifluoromethyl)phenyl]carbamoyl}bicyclo[2.2.1]heptan-2-yl]carbamoyl}-6-methoxypyridin-3-yl)-4-fluorophenyl]-2,2,2-trifluoroethyl N-cyclobutyl-carbamate] is 7.9 nM; for `O=C(N[C@@H]1C2CCC(/C2=C/C(F)(F)F)[C@@H]1C(=O)Nc1ccc(F)c(C(F)(F)F)c1)c1cc(Br)cnc1OCCO` (stereo partly drawn) [Example 41, 5-bromo-N-[(2R,3S,7Z)-3-{[4-fluoro-3-(trifluoromethyl)phenyl]carbamoyl}-7-(2,2,2-trifluoroethylidene)bicyclo[2.2.1]heptan-2-yl]-2-(2-hydroxyethoxy) pyridine-3-carboxamide] it is 770 nM.
With `COc1nn(C)cc1C(=O)N[C@@H]1C2CCC(/C2=C/C(F)(F)F)[C@@H]1C(=O)Nc1ccc(F)c(C(F)(F)F)c1` (stereo partly drawn) [Example 12, N-[(2R,3S,7Z)-3-{[4-fluoro-3-(trifluoromethyl)phenyl]carbamoyl}-7-(2,2,2-trifluoroethylidene)bicyclo[2.2.1]heptan-2-yl]-3-methoxy-1-methyl-1H-pyrazole-4-carboxamide] the figure was 4600 nM; with `COc1ncc(C2=NOC3COCC23)cc1C(=O)N[C@H]1[C@@H](C(=O)N[C@H](C)C2(C)CC2)[C@H]2CC[C@@H]1/C2=C\c1csc(C(F)F)n1` (stereo partly drawn) [Example 100, N-((1R,2R,3S,4R,Z)-7-((2-(difluoromethyl)thiazol-4-yl)methylene)-3-(((R)-1-(1-methylcyclopropyl)ethyl)carbamoyl)bicyclo[2.2.1]heptan-2-yl)-2-methoxy-5-(3a,4,6,6a-tetrahydrofuro[3,4-d]isoxazol-3-yl)nicotinamide], 3.4 nM.
